Converted amounts (≈) assume the structure as drawn.
Key:
[1] = Thermodynamic solubility in FaSSIF pH 6.5 buffer; type: physicochemical; settings: FaSSIF buffer, 25 °C, pH 6.5, fassif, thermodynamic from solid, Method 1 (UV-vis, 25° C., 24 hrs)
Experimental: FaSSIF v2 buffer is freshly prepared prior to use according to the suppliers' instructions and the pH adjusted to 6.5 using 1 M NaOH or 1 M HCl as required. From 1 mM working solution of test compound in DMSO, the λmax of the test compound is determined by scanning from 200 nm to 700 nm, in 1 nm steps with an EPOCH UV/Visible spectrophotometer (Biotek Instruments Inc.). A 12-point standard curve of compound concentration versus absorption at λmax is generated via two-fold serial dilutions of the 1 mM working solution with DMSO. Approximately 1 mg of test compound is accurately weighed into an Eppendorf tube and the appropriate volume of FaSSIF buffer is added to make a nominal concentration of 1 mg/mL. The tube is incubated on a rotator at 20 rpm, 25° C. for 24 hrs. Samples are then filtered using 0.45 μm filters (Sartorious, CAT #1776C) and the filtrate subjected to UV-vis spectroscopy analysis. The absorption at λmax is compared to the standard curve to determine the concentration of compound in solution after 24 hours.
FaSSIF buffer was prepared according to the suppliers' instructions and the pH adjusted to 6.5 using 1 M NaOH or 1 M HCl as required. […] A stir stick was added to each vial and vials sealed with a moulded PTDE/SIL 96-well plate cover. The plate was shaken at 25° C. at 1,100 rpm using an Eppendorf Thermomixer Comfort plate shaker. The plates were filtered using a vacuum manifold and diluted with a mixture of H2O and acetonitrile containing internal standard. The concentration of the test compound in the filtrate was determined by LCMS analysis with reference to the internal standards to determine the solubility in the buffer.

BRD4 BD1 = BRD4 BD1 (Homo sapiens (Human), UniProt O60885); assay: NanoBRET bromodomain assay, NanoLuc-BRD4-BD1 fusion in HEK293 cells; type: cell-based; settings: top concentration 10 μM
[2] = Plasma stability assay, rat plasma; type: in vitro ADME; settings: Method 1 (5 μM)
Procedure, shortened: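 Compound at 5 μM final (0.5% DMSO) in one protocol or 10 μM (2% DMSO) in the other, incubated in plasma at 37° C.; samples taken 0–120 min and quenched with cold acetonitrile plus internal standard. LC-MS/MS gives percent remaining relative to the 0-min sample.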

## CNC(=O)c1[nH]c(C(=O)NC2CCC2)cc1O[C@@H](C)c1ccccc1 (stereo in doubt) [Example 101, N^5-cyclobutyl-N^2-methyl-3-(1-phenylethoxy)-1H-pyrrole-2,5-dicarboxamide]
[1]
  solubility thermodynamic at 24 h: 193 µM (≈ 65.9 µg/mL)
BRD4 BD1
  IC50: ≥ 10 µM
[2]
  Plasma Stability (% remaining at 120 minutes), Rat: 61%

Reference: patent US20250263370A1 (Tay Therapeutics Limited, priority 2022, published 2025)
